The subject of one data set is Caco-2 cells. Kind of data set: Cellular uptake into Caco-2 cells under various pH conditions (pH profile). In kind it is in vitro ADME, human. The following applies: 2 mM, uptake over 15 minutes. The protocol: To investigate the effect of extracellular fluid on the cellular uptake of dipeptides and β-lactam antibiotics transported by PEPT1, the cellular uptake of dipeptides, i.e., [^14C]glycylsarcosine ([^14C]GlySar) and [^3H]carnosine, and β-lactam antibiotics, i.e., cefadroxil (CDX), cefixime (CFIX), and FK089, was evaluated at pH 5.0 to 7.0 using gastrointestinal tract model cells (Caco-2 cells).
Cells cultured on 4-well plates were rinsed 3 times with 1 mL Hanks' balanced salt solution (HBSS: 0.952 mM CaCl2, 5.36 mM KCl, 0.441 mM KH2PO4, 0.812 mM MgSO4, 136.7 mM NaCl, 0.385 mM Na2HPO4, 25 mM D-glucose, 10 mM HEPES; pH 7.4; osmotic pressure 315 mOs/kg) heated to 37° C., and uptake was initiated by adding 250 μL HBSS containing medical fluid. Uptake was terminated at a predetermined period of time by washing the cells 3 times with 1 mL ice-cooled HBSS. […] The medicaments contained in the solution extracted from the cells were quantified by a liquid scintillation counter or liquid chromatography (HPLC). Proteins contained in the cells were quantified using a protein assay kit (Bio-Rad, Richmond, Calif., USA) according to the Bradford assay (Bradford, M. M. “A Rapid and Sensitive Method for the Quantitation of Microgram Quantities of Protein Utilizing the Principle of Protein-Dye Binding”. Anal. Biochem. 72 (1976): 248-254). […]

Another data set deals with rat ileum. Kind of data set: Absorption in rat intestinal loop, in situ closed loop method. The conditions noted are these: 20 minutes, CDX 1 mM or CFIX 0.5 mM in MES buffer pH 6.0. In kind it is in vivo. The protocol:
For example, rats are anesthetized by intraperitoneally administering pentobarbital sodium (50 mg/kg). Then, laparotomy is performed along the median line to expose the intestinal tract, and a loop is formed at the ileum (e.g., FIG. 6). MES buffer containing medical fluid and a polymer (5 mM KCl, 100 mM NaCl, 10 mM 2-(N-morpholino)ethanesulfonic acid (MES), 85 mM mannitol, 0.01% polyethylene glycol; pH 6.0; osmotic pressure 290 mOs/kg) is introduced into the intestinal loop and both ends of the loop are ligated. Subsequently, the intestinal loop is immediately returned to the abdominal cavity. An incandescent lamp is used to maintain the body temperature. The solution inside the intestinal loop is retrieved 20 minutes after its administration. The pH was measured by pH-meter. The amount of medicaments are measured by HPLC.
The oral composition of the invention was prepared by adding a β-lactam antibiotic (CDX or CFIX) to 10 mM MES buffer (pH 6.0) such that the buffer contained CDX in an amount of 1 mM or CFIX in an amount of 0.5 mM, and further adding Eudragit L100-55 to the buffer so that it contained in a proportion of 10 or 20 wt. % based on the amount of the entire oral composition. A β-lactam antibiotic solution containing no Eudragit L100-55 was prepared as a control.
These compositions were administered into the intestinal loops prepared at the caecum junction of SD male rats (junction between the terminal of the ileum and where the caecum starts) to a distance of 14 cm toward the stomach. The solution remaining in the intestinal loops was retrieved 20 minutes after administration. The concentration of β-lactam antibiotic in the retrieved solution was measured by HPLC, and pH of the retrieved solution was measured using a pH meter. Absorbability was evaluated according to the decrease in the concentration of β-lactam antibiotic in the retrieved solution in comparison with the concentration thereof in the solution administered.

Data set [1] is described as follows: Plasma concentration of CFIX after oral administration to rats with polymer and/or CDX. It counts as in vivo. The following applies: male, SD, rat, CFIX 2.3 mg/kg, polymer 500 mg/kg. The protocol:
To investigate whether absorption of orally-administered peptidergic compounds in rats is improved by controlling gastrointestinal pH using pH-sensitive polymers, the time course of the plasma concentration of CFIX was examined after orally administering the peptidergic compound CFIX in combination with a pH-sensitive polymer (Eudragit L100-55) or pH-insensitive polymer (Eudragit RS PO).
The oral composition of the invention was prepared by adding Eudragit L100-55 to an aqueous solution of CFIX (0.23 mg/mL) such that the solution contained Eudragit L100-55 in a proportion of 5 wt. % based on the amount of the entire oral composition. A CFIX solution containing no Eudragit L100-55 was prepared as a control. These compositions were orally administered to SD male rats (body weight: 190 to 220 g) fasted for an entire day and night such that CFIX was given in a dose of 2.3 mg/kg. Blood was collected 15 to 480 minutes after administration, and the plasma concentration of CFIX was measured by HPLC. Based on the plasma concentration profile of CFIX thus obtained, the area under the plasma drug concentration-time curve (AUC) and highest drug concentration observed in plasma following administration of an extravascular dose (Cmax) were obtained.
Plots (◯) represent absorption of CFIX in the absence of a polymer, plots (●) represent absorption of CFIX in the presence of Eudragit L100-55 (500 mg/kg), and plots (□) represent absorption of CFIX in the presence of Eudragit RS PO (500 mg/kg). Each plot represents the mean±standard error of 5 experiments.
The experimental procedure was as described in Example 4 except that CDX was simultaneously administered.
FIG. 5 depicts the influence of CDX on the oral administration profile of CFIX after administering the composition (CFIX: 2.3 mg/kg) to rats. Plots (●) represent absorption of CFIX when Eudragit L100-55 (500 mg/kg) and 0 mM CDX were used, plots (▴) represent absorption of CFIX when Eudragit L100-55 (500 mg/kg) and 2 mM CDX were used, and plots (▪) represent absorption of CFIX when Eudragit L100-55 (500 mg/kg) and 10 mM CDX were used. […]

Take `CC1=C(C(=O)O)N2C(=O)[C@@H](NC(=O)[C@H](N)c3ccc(O)cc3)[C@H]2SC1` [CDX, cefadroxil]: the “pH of optimum uptake into Caco-2 cells” value in the data set on Caco-2 cells (pH 5.0 to 7.0) is given as 6.0. Moreover, the “absorption from rat intestinal loop” value in the data set on rat ileum (no Eudragit L100-55) is on record as “about 40%”; in the data set on rat ileum (with Eudragit L100-55 20 wt. %), “about 80%”.
By Cmax is commonly meant the maximum level reached in the sampled fluid or tissue. Usually Tmax stands for the time from dosing to the highest level. As for `C=CC1=C(C(=O)O)N2C(=O)[C@@H](NC(=O)/C(=N\OCC(=O)O)c3csc(N)n3)[C@H]2SC1` [CFIX, cefixime], in the data set on Caco-2 cells (Caco-2 cells), the “cellular uptake when pH of extracellular fluid is decreased from 6.0 to 5.0” value was “greatly enhanced”. The “absorption from rat intestinal loop” value in the data set with rat ileum (no Eudragit L100-55) is listed as “hardly absorbed”. Moreover, the “absorption from rat intestinal loop” value in the data set with rat ileum (with Eudragit L100-55 20 wt. %) was “about 35%”. In addition, in data set [1], the Cmax was 4130 ± 500 ng/mL and the Tmax was 43.2 ± 12 min. In addition, in data set [1] (read-out: AUC0-8h of CFIX), the AUC(0-t) is 10800 ± 1480 ng·h/mL.

These data come from patent publication US8871818B2, “Gastrointestinal absorption enhancer mediated by proton-coupled transporter and its preparing method” (Otsuka Pharmaceutical Co., Ltd., priority 2003, dated 2014).
